Test results: PMC9904497 (2023)

Tests used:
[1] = system: PQS-2302-WT (RNA, G4) GGGGAGGAGG; assay: fluorescence enhancement; details: 150 mM KCl; 10 mM Tris-HCl pH 7.5; 2 µM RNA, 2 µM dye; higher than in LiCl
[2] = system: PQS-91-WT (RNA, G4) GGGGGGAGGGCCGGG; assay: fluorescence enhancement; details: 150 mM KCl, 10 mM Tris-HCl pH 7.5, 2 µM RNA, 2 µM dye
[3] = system: PQS-1234-WT (RNA, G4) GGGUUAGCCAGGGCCGAGGGGGGCUGGG; assay: fluorescence enhancement; details: 150 mM KCl; 10 mM Tris-HCl pH 7.5; 2 µM RNA, 2 µM dye; higher than in LiCl
[4] = system: PQS-1276-WT (RNA, G4) GGGCCUCGGGGAACGGGGGCCGGG; assay: fluorescence enhancement; details: 150 mM KCl; 10 mM Tris-HCl pH 7.5; 2 µM RNA, 2 µM dye; higher than in LiCl
[5] = system: PQS-1682-WT (RNA, G4) GGAGGUGGAUGG; assay: fluorescence enhancement; details: 150 mM KCl; 10 mM Tris-HCl pH 7.5; 2 µM RNA, 2 µM dye
[6] = system: TERRA-WT-CY5 (RNA, G4) UUAGGGUUAGGGUUAGGGUUAGGG; assay: microscale thermophoresis (MST); details: 150 mM KCl; 10 mM Tris-HCl pH 7.5 folding buffer; BBM stock 80 µM mixed 1:1
[7] = system: PQS-675-WT-CY5 (RNA, G4) GGGCGGGCGGCCUGCAGGGACAUGGG; assay: microscale thermophoresis (MST); details: 150 mM KCl; 10 mM Tris-HCl pH 7.5 folding buffer; BBM stock 80 µM mixed 1:1
[8] = system: PQS-2302-WT-CY5 (RNA, G4) GGGGAGGAGG; assay: microscale thermophoresis (MST); details: 150 mM KCl; 10 mM Tris-HCl pH 7.5 folding buffer; BBM stock 80 µM mixed 1:1

| binding [1] | binding ([2]; only slightly higher than in LiCl) | binding [3] | binding [4] | binding [5] | KD [6] [nM] | KD [7] [nM] | KD [8] [nM] | binding ([2]; higher than in LiCl) | Structure (SMILES) |
| --- | --- | --- | --- | --- | --- | --- | --- | --- | --- |
| yes | weak | yes | yes | weak | – | – | – | – | CCc1c(C)c2cc3nc(cc4nc(cc5c(CC)c(C)c(cc1[nH]2)n5C)C(C)=C4CCC(=O)O)C(CCC(=O)O)=C3C |
| – | – | – | – | – | 11550 | 10.78 | 264.76 | – | COc1cc2c3cc1Oc1c(OC)c(OC)cc4c1[C@@H](Cc1ccc(O)c(c1)Oc1ccc(cc1)C[C@@H]3N(C)CC2)N(C)CC4 |
| yes | – | yes | yes | weak | – | – | – | yes | Cc1ccc2c(c1)sc(-c1ccc(N(C)C)cc1)[n+]2C |
